Read-outs that look alike come from different tables or passages of the source.
How the values were obtained:
CYP2B6 mRNA = experiment: CYP induction in cryopreserved human hepatocytes, CYP2B6; type: in vitro ADME; details: 0.03 to 10 μM, up to 3 days
[1] = 4-week toxicity study with 4-week recovery in mice (incl. TK)
[2] = Beagle, dog, in vivo, po
[3] = tested on: LU2514 SCLC patient-derived xenograft; experiment: LU2514 HuPrime SCLC PDX model; type: in vivo, mice
Experimental: Tumor growth inhibition analysis was performed on Day 28 post treatment, the last day of dosing.

LNCaP cells = experiment: LNCaP cell proliferation with DHT and irradiation; type: cell-based, human; details: 10 nM DHT + 100 nM Compound A + 2Gy irradiation vs DHT + irradiation or DHT + Compound A, 220 hours
Experimental: LNCaP cells are androgen-sensitive human prostate adenocarcinoma cells. […] The proliferation of the LNCap cells was monitored for 220 hours.

[4] = tested on: LU1480 SCLC patient-derived xenograft; experiment: LU1480 HuPrime SCLC PDX model; type: in vivo, mice
in vivo = details: Beagle, dog, po; for AUC(0-t): AUC0-96
[5] = Plasma protein binding, human
[6] = tested on: Salmonella typhimurium TA98 and TA100 strains; experiment: Bacterial reverse mutation assay; details: up to 500 μg/mL, presence and absence of S9
[7] = Pharmacokinetics after IV and oral dose, dogs; type: in vivo, Beagle dogs; details: dog, plasma
[8] = Day 1, 5 mg base/kg/dose oral, 5 days on/2 days off, F
[9] = Day 1, 5 mg base/kg/dose oral, 5 days on/2 days off, M
[10] = Day 1, 15 mg base/kg/dose oral, 5 days on/2 days off, M
[11] = Day 1, 25 mg base/kg/dose oral, QODx3/week, F
[12] = Day 1, 25 mg base/kg/dose oral, QODx3/week, M
[13] = Day 1, 45 mg base/kg/dose oral, 5 days on/2 days off, F
[14] = Day 1, 45 mg base/kg/dose oral, 5 days on/2 days off, M
[15] = Day 26, 5 mg base/kg/dose oral, 5 days on/2 days off, F
[16] = Day 26, 5 mg base/kg/dose oral, 5 days on/2 days off, M
[17] = Day 26, 15 mg base/kg/dose oral, 5 days on/2 days off, F
[18] = Day 26, 25 mg base/kg/dose oral, QODx3/week, F
[19] = Day 26, 25 mg base/kg/dose oral, QODx3/week, M
[20] = Day 26, 45 mg base/kg/dose oral, 5 days on/2 days off, F
[21] = Day 26, 45 mg base/kg/dose oral, 5 days on/2 days off, M
[22] = Beagle, male, single IV dose 1 mg
[23] = Beagle, male, single oral dose 1 mg base/kg
[24] = Beagle, male, single oral dose 3 mg base/kg
[25] = Beagle, male, single oral dose 6 mg base/kg

COc1ccc(-c2c(-c3ccc(C#N)c(F)c3)nc(N3CCC(N)CC3)n(C)c2=O)cc1F [Compound A, 4-[2-(4-amino-piperidin-1-yl)-5-(3-fluoro-4-methoxy-phenyl)-1-methyl-6-oxo-1,6-dihydro-pyrimidin-4-yl]-2-fluoro-benzonitrile]
increase in CYP2B6 mRNA over vehicle control (CYP2B6 mRNA): < 2 fold
AUC0-24 [1, 8]: 1500 ng·h/mL
Cmax [1, 8]: 201 ng/mL
AUC0-24 [1, 9]: 2270 ng·h/mL
Cmax [1, 9]: 230 ng/mL
AUC0-24 [1, 10]: 13000 ng·h/mL
Cmax [1, 10]: 1020 ng/mL
AUC0-24 [1, 11]: 20300 ng·h/mL
Cmax [1, 11]: 1830 ng/mL
AUC0-24 [1, 12]: 21900 ng·h/mL
Cmax [1, 12]: 1530 ng/mL
AUC0-24 [1, 13]: 36300 ng·h/mL
Cmax [1, 13]: 3570 ng/mL
AUC0-24 [1, 14]: 35200 ng·h/mL
Cmax [1, 14]: 3130 ng/mL
AUC0-24 [1, 15]: 2410 ng·h/mL
Cmax [1, 15]: 276 ng/mL
AUC0-24 [1, 16]: 2010 ng·h/mL
Cmax [1, 16]: 276 ng/mL
AUC0-24 [1, 17]: 8640 ng·h/mL
Cmax [1, 17]: 769 ng/mL
AUC0-24 [1, 18]: 17500 ng·h/mL
Cmax [1, 18]: 1740 ng/mL
AUC0-24 [1, 19]: 17800 ng·h/mL
Cmax [1, 19]: 1450 ng/mL
AUC0-24 [1, 20]: 26500 ng·h/mL
Cmax [1, 20]: 2130 ng/mL
AUC0-24 [1, 21]: 29000 ng·h/mL
Cmax [1, 21]: 2620 ng/mL
NOAEL ([1]; QD×5/week schedule): 5 mg base/kg/dose
STD10 ([1]; QD×5/week schedule): > 45 mg base/kg/dose
STD10 ([1]; QOD×3 weekly schedule): > 25 mg base/kg/dose
AUC0-96 ([2]; female): 127 ng·h/mL
Cmax ([2]; female): 5.77 ng/mL
AUC0-96 ([2]; female, 0.25 mg/kg): 272 ng·h/mL
Cmax ([2]; female, 0.25 mg/kg): 11.5 ng/mL
AUC0-96 ([2]; female, 0.5 mg/kg): 618 ng·h/mL
AUC0-96 ([2]; male): 114 ng·h/mL
Cmax ([2]; male): 5.81 ng/mL
AUC0-96 ([2]; male, 0.25 mg/kg): 302 ng·h/mL
Cmax ([2]; male, 0.25 mg/kg): 10.5 ng/mL
AUC0-96 ([2]; male, 0.5 mg/kg): 653 ng·h/mL
Median Tumor Volume Day 28 ([3]; 5 mg base/kg PO QDx28): 1244.8 mm^3
Median Tumor Volume Diff. (Day 28 - Day 1) ([3]; 5 mg base/kg PO QDx28): 1071.6 mm^3
Median Tumor Volume Day 28 ([3]; 10 mg base/kg PO QDx28): 906.0 mm^3
Median Tumor Volume Diff. (Day 28 - Day 1) ([3]; 10 mg base/kg PO QDx28): 732.3 mm^3
mean body weight loss ([3]; both LU2514 studies): < 10%
LNCaP cell proliferation (LNCaP cells): significantly inhibits LNCaP cell proliferation
Median Tumor Volume Day 21 ([4]; 5 mg base/kg PO QDx21): 490.1 mm^3
Median Tumor Volume Diff. (Day 21 - Day 1) ([4]; 5 mg base/kg PO QDx21): 400.6 mm^3
Median Tumor Volume Day 21 ([4]; 10 mg base/kg PO QDx21): 321.4 mm^3
Median Tumor Volume Diff. (Day 21 - Day 1) ([4]; 10 mg base/kg PO QDx21): 234.3 mm^3
% TGI ([4]; 10 mg base/kg PO QDx21, Day 21): 72%
TGI ([4]; 10 mg base/kg oral for 21 days): 72%
AUC(0-t) (in vivo; both, 0.125 mg/kg): 127 ng·h/mL
Cmax (in vivo; both, 0.125 mg/kg, Cmax): 5.26 ng/mL
Cmax (in vivo; both, 0.125 mg/kg, combined Day 15 mean Cmax): 5.26 ng/mL
Cmax (in vivo; both, 0.25 mg/kg, combined Day 15 mean Cmax): 11 ng/mL
Cmax (in vivo; both, 0.5 mg/kg, combined Day 15 mean Cmax): 22 ng/mL
AUC(0-t) (in vivo; both): 120 ng·h/mL
Cmax (in vivo; both, Cmax): 5.79 ng/mL
AUC(0-t) (in vivo; female, 0.25 mg/kg): 343 ng·h/mL
Cmax (in vivo; female, 0.25 mg/kg, Cmax): 12.1 ng/mL
AUC(0-t) (in vivo; female, 0.5 mg/kg): 729 ng·h/mL
Cmax (in vivo; female, 0.5 mg/kg, Cmax): 26.6 ng/mL
AUC(0-t) (in vivo; female): 141 ng·h/mL
AUC(0-t) (in vivo; male, 0.25 mg/kg): 335 ng·h/mL
Cmax (in vivo; male, 0.25 mg/kg, Cmax): 11.9 ng/mL
AUC(0-t) (in vivo; male, 0.5 mg/kg): 762 ng·h/mL
Cmax (in vivo; male, 0.5 mg/kg, Cmax): 24 ng/mL
AUC(0-t) (in vivo; male): 107 ng·h/mL
bound to plasma proteins [5]: 83%
mutagenicity [6]: negative for mutagenicity
half-life ([7]; Beagle (dogs), IV, non-rodents (dogs, monkeys), read-out: half-life): 12 to 20 h
bioavailability ([7]; Beagle, po, dogs and monkeys, read-out: oral bioavailability): 82 to 100%
AUC(0-inf) [7, 22]: 1940 ng·h/mL
AUC(0-t) [7, 22]: 1300 ng·h/mL
clearance [7, 22]: 9 mL/min/kg
Vd ([7]; Beagle, male, single IV dose 1 mg, mean (SD), read-out: Vss): 11.1 L/kg
half-life ([7]; Beagle, male, single IV dose 1 mg, read-out: t1/2, z (converted)): 15.5 h
AUC(0-t) [7, 23]: 1090 ng·h/mL
Cmax [7, 23]: 69 ng/mL
Tmax [7, 23]: 2 h
bioavailability ([7]; Beagle, male, single oral dose 1 mg base/kg, read-out: % F): 84%
half-life ([7]; Beagle, male, single oral dose 1 mg base/kg, read-out: t1/2, z (converted)): 15 h
AUC(0-t) [7, 24]: 3790 ng·h/mL
Cmax [7, 24]: 298 ng/mL
Tmax [7, 24]: 1 h
bioavailability ([7]; Beagle, male, single oral dose 3 mg base/kg, read-out: % F): 100%
half-life ([7]; Beagle, male, single oral dose 3 mg base/kg, read-out: t1/2, z (converted)): 19.4 h
AUC(0-t) [7, 25]: 8790 ng·h/mL
Cmax [7, 25]: 627 ng/mL
Tmax [7, 25]: 1 h
bioavailability ([7]; Beagle, male, single oral dose 6 mg base/kg, read-out: % F): 100%
half-life ([7]; Beagle, male, single oral dose 6 mg base/kg, read-out: t1/2, z (converted)): 17.8 h
